Measurements as given in article PMC6928863, “Development of Human Serum Albumin Selective Fluorescent Probe Using Thieno[3,2-b]pyridine-5(4H)-one Fluorophore Derivatives” (Sensors (Basel, Switzerland), 2019).

Target: T1, human serum albumin (HSA) (Homo sapiens, UniProt P02768)
T1 construct: gene ALB
Assay: fluorescence titration (one-site fit), Job's plot […], site-marker displacement
Type: binding

T1 sequence (P02768 25-609): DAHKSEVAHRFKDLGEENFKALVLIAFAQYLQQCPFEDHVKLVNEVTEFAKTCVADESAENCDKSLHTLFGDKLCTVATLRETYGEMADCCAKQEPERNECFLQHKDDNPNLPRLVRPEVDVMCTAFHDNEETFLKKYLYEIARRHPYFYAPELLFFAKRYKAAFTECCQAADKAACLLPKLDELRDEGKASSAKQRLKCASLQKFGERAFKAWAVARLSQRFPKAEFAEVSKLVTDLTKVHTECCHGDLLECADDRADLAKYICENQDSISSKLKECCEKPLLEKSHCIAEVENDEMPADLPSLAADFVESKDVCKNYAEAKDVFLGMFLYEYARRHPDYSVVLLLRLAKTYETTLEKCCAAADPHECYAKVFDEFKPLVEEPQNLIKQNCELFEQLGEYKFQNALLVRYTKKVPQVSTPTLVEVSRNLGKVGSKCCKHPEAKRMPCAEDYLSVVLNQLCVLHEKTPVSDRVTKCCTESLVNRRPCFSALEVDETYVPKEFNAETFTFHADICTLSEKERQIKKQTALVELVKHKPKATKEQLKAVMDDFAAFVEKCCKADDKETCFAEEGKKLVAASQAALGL

## CCN(CC)c1ccc(-c2cc3c(s2)c(C(=O)O)cc(=O)n3C)cc1 [compound 4, KF 4]
  Kd: 5.4 µM
